Source: ChEMBL document CHEMBL3880442, “NHE3-binding compounds and methods for inhibiting phosphate transport” (2014)
Active and inactive are the calls of the source.

Columns and labels:
[1] = test system: Rattus norvegicus; experiment: Effect on sodium level in urine in Sprague-Dawley rat at 1 mg/kg administered via oral gavage measured after 16 hrs by gravimetric analysis relative to vehicle-treated control; format: functional
[2] = Toxicity in Sprague-Dawley rat model of uremia-associated vascular calcification assessed as change in body weight in presence of calcitriol; settings: in vivo
[3] = test system: Rattus norvegicus; experiment: Effect on sodium level in urine in Sprague-Dawley rat at 2 mg/kg administered via oral gavage measured after 16 hrs by gravimetric analysis relative to vehicle-treated control; format: functional
[4] = test system: Rattus norvegicus; experiment: Effect on phosphate level in urine in Sprague-Dawley rat at 2 mg/kg administered via oral gavage measured after 16 hrs by gravimetric analysis relative to vehicle-treated control; format: functional
[5] = test system: Rattus norvegicus; experiment: Effect on phosphate level in urine in Sprague-Dawley rat at 0.03 mg/kg administered via oral gavage measured after 16 hrs by gravimetric analysis relative to vehicle-treated control; format: functional
[6] = test system: Rattus norvegicus; experiment: Antihypertrophic activity in dietary salt-induced Sprague-Dawley rat partial ablation model of chronic kidney disease assessed as change in kidney morphology at 0.3 to 3 mg/kg administered with chow diet measured after 7 days; format: functional, organism-based
[7] = test system: Rattus norvegicus; experiment: Anti-remodeling activity in adenine-induced uremic Sprague-Dawley rat model assessed as decrease in ratio of heart weight to body weight at 2 to 5 mg/kg administered with chow diet; format: functional, organism-based
[8] = test system: Rattus norvegicus; experiment: Reduction in stomach calcium content in adenine-induced uremic Sprague-Dawley rat model at 5 mg/kg administered with chow diet; format: functional, organism-based
[9] = species: Rattus norvegicus; experiment: Reduction in aortic phosphorus content in Sprague-Dawley rat model of uremia-associated vascular calcification measured after 27 days in presence of calcitriol; format: functional
[10] = species: Rattus norvegicus; experiment: Reduction in aortic calcium content in Sprague-Dawley rat model of uremia-associated vascular calcification measured after 27 days in presence of calcitriol; format: functional
[11] = test system: Rattus norvegicus; experiment: Anti-remodeling activity in adenine-induced uremic Sprague-Dawley rat model assessed as decrease in ratio of aortic arch weight to body weight at 2 to 5 mg/kg administered with chow diet; format: functional, organism-based
[12] = test system: Rattus norvegicus; experiment: Anti-remodeling activity in adenine-induced uremic Sprague-Dawley rat model assessed as decrease in ratio of kidney weight to body weight at 2 to 5 mg/kg administered with chow diet; format: functional, organism-based
[13] = test system: Rattus norvegicus; experiment: Reduction in aortic phosphorus content in adenine-induced uremic Sprague-Dawley rat model at 5 mg/kg administered with chow diet; format: functional, organism-based
[14] = species: Rattus norvegicus; experiment: Reduction in stomach phosphorus content in Sprague-Dawley rat model of uremia-associated vascular calcification measured after 27 days in presence of calcitriol; format: functional
[15] = species: Rattus norvegicus; experiment: Reduction in plasma creatinine level in Sprague-Dawley rat model of uremia-associated vascular calcification measured after 27 days in presence of calcitriol; format: functional
[16] = test system: Rattus norvegicus; experiment: Reduction in aortic calcium content in adenine-induced uremic Sprague-Dawley rat model at 5 mg/kg administered with chow diet; format: functional, organism-based
[17] = species: Rattus norvegicus; experiment: Increase in plasma calcium level in Sprague-Dawley rat model of uremia-associated vascular calcification measured after 27 days in presence of calcitriol; format: functional
[18] = test system: Rattus norvegicus; experiment: Reduction in stomach phosphorus content in adenine-induced uremic Sprague-Dawley rat model at 5 mg/kg administered with chow diet; format: functional, organism-based
[19] = test system: Rattus norvegicus; experiment: Reduction in serum phosphorus level in adenine-induced uremic Sprague-Dawley rat model at 2 to 5 mg/kg administered with chow diet; format: functional, organism-based
[20] = species: Rattus norvegicus; experiment: Reduction in plasma FGF23 level in Sprague-Dawley rat model of uremia-associated vascular calcification measured after 27 days in presence of calcitriol; format: functional
[21] = species: Rattus norvegicus; experiment: Effect on heart hypertrophy in Sprague-Dawley rat model of uremia-associated vascular calcification assessed as reduction in heart to body weight ratio measured after 27 days in presence of calcitriol; format: functional
[22] = test system: Rattus norvegicus; experiment: Anti-remodeling activity in adenine-induced uremic Sprague-Dawley rat model assessed as decrease in ratio of stomach weight to body weight at 2 to 5 mg/kg administered with chow diet; format: functional, organism-based
[23] = test system: Rattus norvegicus; experiment: Reduction in serum creatinine level in adenine-induced uremic Sprague-Dawley rat model at 2 to 5 mg/kg administered with chow diet; format: functional, organism-based
[24] = species: Rattus norvegicus; experiment: Reduction in plasma phosphorus level in Sprague-Dawley rat model of uremia-associated vascular calcification measured after 27 days in presence of calcitriol; format: functional
[25] = test system: Rattus norvegicus; experiment: Antihypertrophic activity in dietary salt-induced Sprague-Dawley rat partial ablation model of chronic kidney disease assessed as change in heart morphology at 0.3 to 3 mg/kg administered with chow diet measured after 7 days; format: functional, organism-based
[26] = test system: Rattus norvegicus; experiment: Effect on urinary excretion of phosphorus in dietary salt-induced Sprague-Dawley rat partial ablation model of chronic kidney disease at 0.3 to 3 mg/kg administered with chow diet measured after 7 days; format: functional, organism-based
[27] = test system: Rattus norvegicus; experiment: Reduction in urinary calcium mass in rat at 0.3 to 3 mg/kg administered with diet relative to vehicle-control; format: functional, organism-based
[28] = species: Rattus norvegicus; experiment: Increase in plasma albumin level in Sprague-Dawley rat model of uremia-associated vascular calcification measured after 27 days in presence of calcitriol; format: functional
[29] = test system: Rattus norvegicus; experiment: Reduction in urinary phosphorus mass in rat at 0.3 to 3 mg/kg administered with diet relative to vehicle-control; format: functional, organism-based
[30] = species: Rattus norvegicus; experiment: Effect on kidney hypertrophy in Sprague-Dawley rat model of uremia-associated vascular calcification assessed as reduction in kidney to body weight ratio measured after 27 days in presence of calcitriol; format: functional
[31] = species: Rattus norvegicus; experiment: Reduction in creatinine clearance in Sprague-Dawley rat model of uremia-associated vascular calcification measured after 27 days in presence of calcitriol; format: functional
[32] = species: Rattus norvegicus; experiment: Increase in plasma aldosterone level in Sprague-Dawley rat model of uremia-associated vascular calcification measured after 27 days in presence of calcitriol; format: functional
[33] = Reduction in fluid overload in dietary salt-induced Sprague-Dawley rat partial ablation model of chronic kidney disease at 0.3 to 3 mg/kg administered with chow diet measured after 7 days; format: functional, organism-based
[34] = test system: Rattus norvegicus; experiment: Reduction in albuminuria in dietary salt-induced Sprague-Dawley rat partial ablation model of chronic kidney disease at 0.3 to 3 mg/kg administered with chow diet measured after 7 days; format: functional, organism-based
[35] = test system: Rattus norvegicus; experiment: Antihypertensive activity in dietary salt-induced Sprague-Dawley rat partial ablation model of chronic kidney disease assessed as reduction in blood pressure at 0.3 to 3 mg/kg administered with chow diet measured after 7 days; format: functional, organism-based
[36] = species: Rattus norvegicus; experiment: Reduction in stomach calcium content in Sprague-Dawley rat model of uremia-associated vascular calcification measured after 27 days in presence of calcitriol; format: functional

Measured: Activity

CN1Cc2c(Cl)cc(Cl)cc2[C@H](c2cccc(S(=O)(=O)NCCOCCOCCNC(=O)NCCCCNC(=O)NCCOCCOCCNS(=O)(=O)c3cccc([C@@H]4CN(C)Cc5c(Cl)cc(Cl)cc54)c3)c2)C1.Cl.Cl [TENAPANOR HYDROCHLORIDE]
Non-Toxic: [2]
11%: [1]

CN1Cc2c(Cl)cc(Cl)cc2[C@H](c2cccc(S(=O)(=O)NCCOCCOCCNC(=O)CCC(CCC(=O)NCCOCCOCCNS(=O)(=O)c3cccc([C@@H]4CN(C)Cc5c(Cl)cc(Cl)cc54)c3)(CCC(=O)NCCOCCOCCNS(=O)(=O)c3cccc([C@@H]4CN(C)Cc5c(Cl)cc(Cl)cc54)c3)NC(=O)NCP(=O)(O)O)c2)C1
50%: [4]
130%: [3]

CN1Cc2c(Cl)cc(Cl)cc2[C@H](c2cccc(S(=O)(=O)NCCOCCOCCNC(=O)NCCCCNC(=O)NCCOCCOCCNS(=O)(=O)c3cccc([C@@H]4CN(C)Cc5c(Cl)cc(Cl)cc54)c3)c2)C1 [TENAPANOR]
80%: [5]

CN1Cc2c(Cl)cc(Cl)cc2[C@H](c2cccc(S(=O)(=O)NCCOCCOCCNC(=O)NCCCCNC(=O)NCCOCCOCCNS(=O)(=O)c3cccc([C@@H]4CN(C)Cc5c(Cl)cc(Cl)cc54)c3)c2)C1
not listed: [1] | [2] | [3] | [4] | [5]
active: all other assays above
